Measurements: patent US20250092065A1, “2-(INDAZOL-5-YL)-6-(PIPERIDIN-4-YL)-1,7-NAPHTHYRIDINE DERIVATIVES AND RELATED COMPOUNDS AS MODULATORS FOR SPLICING NUCLEIC ACIDS AND FOR THE TREATMENT OF PROLIFERATIVE DISEASES” (REMIX THERAPEUTICS INC., priority 2022, published 2025)
Like-named read-outs stand apart in the source and are kept apart here.

What was measured:
HTT mRNA = assay: RT-qPCR splicing assay, HTT mRNA canonical (CJ) and alternative (AJ) junction; type: cell-based, human
Protocol: (§1) Compounds described herein were used to modulate RNA transcript abundance in cells. The expression of a target mRNA was measured by detecting the formation of an exon-exon junction in the canonical transcript (CJ). A compound mediated exon-inclusion event was detected by observing an increase in formation of a new junction with an alternative exon (AJ). Real-time qPCR assays were used to detect these splicing switches and interrogate the potency of various compounds towards different target genes. A high-throughput real time quantitative PCR (RT-qPCR) assay was developed to measure these two isoforms of the mRNA (CJ and AJ) for exemplary genes, such as HTT, SMN2, and MYB, together with a control housekeeping gene, GAPDH or GUSB or PPIA, used for normalization. Briefly, the A673 or K562 cell line was treated with various compounds described herein (e.g., compounds of Formula (I)). After treatment, the levels of the HTT, MYB, or SMN2 mRNA targets were determined from each sample of cell lysate by cDNA synthesis followed by qPCR.
(§2) The A673 cell line was cultured in DMEM with 10% FBS. Cells were diluted with full growth media and plated in a 96-well plate (15,000 cells in 100 ul media per well). The plate was incubated at 37° C. with 5% CO2 for 24 hours to allow cells to adhere. An 11-point 3-fold serial dilution of the compounds was made in DMSO then diluted in media in an intermediate plate. Compounds were transferred from the intermediate plate to the cell plate with the top dose at a final concentration of 10 uM in the well. Final DMSO concentration was kept at or below 0.25%. The cell plate was returned to the incubator at 37° C. with 5% CO2 for an additional 24 hours.
(§3) The K562 cell line was cultured in IMDM with 10% FBS. For K562, cells were diluted with full growth media and plated in either a 96-well plate (50,000 cells in 50 uL media per well) or a 384-well plate (8,000-40,000 cells in 45 uL media per well). An 11-point 3-fold serial dilution of the compounds were made in DMSO then diluted in media in an intermediate plate. Compound was transferred from the intermediate plate to the cell plate with the top dose at a final concentration of 10 uM in the well. Final DMSO concentration was kept at or below 0.25%. Final volume was 100 uL for 96-well plate and 50 uL for 384-well plate. The cell plate was then placed in an incubator at 37° C. with 5% CO2 for 24 hours.
(§4) The cells were then gently washed with 50 uL-100 uL cold PBS before proceeding to addition of lysis buffer. 30 uL-50 μL of room temperature lysis buffer with DNAse I (and optionally RNAsin) was added to each well. Cells were shaken/mixed thoroughly at room temperature for 5-10 minutes for lysis to take place and then 3 uL-5 μL of room temperature stop solution was added and wells were shaken/mixed again. After 2-5 minutes, the cell lysate plate was transferred to ice for RT-qPCR reaction setup. The lysates could also be frozen at −80° C. for later use.
(§5) In some cases, a direct lysis buffer was used. An appropriate volume of 3× lysis buffer (10 mM Tris, 150 mM NaCl, 1.5%-2.5% Igepal and 0.1-1 U/uL RNAsin, pH 7.4) was directly added to either K562 or A673 cells in media and mixed by pipetting 3 times. The plates were then incubated at room temperature with shaking/rocking for 20-50 minutes to allow for lysis to take place. After this time, the cell lysate plate was transferred to ice to set up for the RT-qPCR reactions. The lysates could also be frozen at −80° C. for later use.
(§6) To set up 10 uL RT-qPCR reactions, cell lysates were transferred to 384-well qPCR plates containing the master mix according to the table below. The plates were sealed, gently vortexed, and spun down before the run. The volumes were adjusted accordingly in some instances where the reaction was carried in 20 μL. The table below summarizes the components of the RT-qPCR reactions:
(§7) The RT-qPCR reaction was performed using a QuantStudio (ThermoFisher) under the following fast cycling conditions. […]

MYB mRNA = assay: RT-qPCR splicing assay, MYB mRNA canonical (CJ) and alternative (AJ) junction; type: cell-based, human
Protocol: as §1, §2, §3, §4, §5, §6, §7

SMN2 mRNA = assay: RT-qPCR splicing assay, SMN2 mRNA; type: cell-based, human; details: canonical junction qPCR panel, Table 4, read-out: SMN2 IC50 (decrease in CJ mRNA levels)
Protocol: as §1, §2, §3, §4, §5, §6, §7

K562 cells = assay: Cell Titer Glo 2.0 cell viability (toxicity) assay, K562; details: 500 cells/well, 72 hours
[1] = Homo sapiens, RT-qPCR, HTT alternative junction mRNA increase, read-out: HTT AJ (increase in alternative junction mRNA, AC50)
[2] = Homo sapiens, RT-qPCR, HTT canonical junction mRNA decrease, read-out: HTT CJ (decrease in canonical junction mRNA, IC50)
[3] = Homo sapiens, canonical junction qPCR panel, Table 4, read-out: HTT IC50 (decrease in CJ mRNA levels)
[4] = Homo sapiens, RT-qPCR, MYB alternative junction mRNA increase, read-out: MYB AJ (increase in alternative junction mRNA, AC50)
[5] = Homo sapiens, RT-qPCR, MYB canonical junction mRNA decrease, read-out: MYB CJ (decrease in canonical junction mRNA, IC50)
[6] = Homo sapiens, canonical junction qPCR panel, Table 4, read-out: MYB IC50 (decrease in CJ mRNA levels)

IC50 (HTT mRNA; [2]) [µM]	IC50 (HTT mRNA; [3]) [µM]	IC50 (MYB mRNA; [5]) [µM]	IC50 (MYB mRNA; [6]) [µM]	IC50 (SMN2 mRNA; Homo sapiens) [µM]	IC50 (HTT mRNA; Homo sapiens, HTT canonical junction mRNA, RT-qPCR, read-out: HTT CJ (decrease in CJ mRNA levels, IC50)) [µM]	IC50 (MYB mRNA; Homo sapiens, MYB canonical junction mRNA, RT-qPCR, read-out: MYB CJ (decrease in CJ mRNA levels, IC50)) [µM]	IC50 (HTT mRNA; HTT canonical junction mRNA, RT-qPCR, read-out: HTT CJ (decrease in CJ mRNA levels, IC50)) [µM]	IC50 (HTT mRNA; canonical junction qPCR panel, Table 4, read-out: HTT IC50 (decrease in CJ mRNA levels)) [µM]	IC50 (MYB mRNA; MYB canonical junction mRNA, RT-qPCR, read-out: MYB CJ (decrease in CJ mRNA levels, IC50)) [µM]	IC50 (MYB mRNA; canonical junction qPCR panel, Table 4, read-out: MYB IC50 (decrease in CJ mRNA levels)) [µM]	IC50 (SMN2 mRNA) [µM]	SMILES	AC50 (HTT mRNA; [1]) [µM]	AC50 (MYB mRNA; [4]) [µM]	Effect of Exemplary Compounds on Cell Viability, K562 (K562 cells)	AC50 (HTT mRNA; Homo sapiens, HTT alternative junction mRNA, RT-qPCR, read-out: HTT AJ (increase in AJ mRNA, AC50)) [µM]	AC50 (MYB mRNA; Homo sapiens, MYB alternative junction mRNA, RT-qPCR, read-out: MYB AJ (increase in AJ mRNA, AC50)) [µM]	AC50 (HTT mRNA; HTT alternative junction mRNA, RT-qPCR, read-out: HTT AJ (increase in AJ mRNA, AC50)) [µM]	AC50 (MYB mRNA; MYB alternative junction mRNA, RT-qPCR, read-out: MYB AJ (increase in AJ mRNA, AC50)) [µM]
0.1 to 1	0.1 to 1	< 0.1	< 0.1	< 0.1	–	–	–	–	–	–	–	C[C@H]1CN(c2ccc3nc(-c4cc(F)c5nc(CO)cn5c4)ncc3c2)C[C@H](C)N1 (single isomer, unassigned) [Compound 828]	1 to 10	< 0.1	B (B represents 100-1000 nM)	–	–	–	–
–	1 to 10	–	0.1 to 1	< 0.1	1 to 10	0.1 to 1	–	–	–	–	–	Cn1cc2cc(-c3ccc4nc(N5CCN6CCCC6C5)ccc4n3)c(O)cc2n1 (centres unmarked) [Compound 134]	–	–	C (C represents 1000-9999 nM)	1 to 10	0.1 to 1	–	–
–	–	–	–	–	–	–	< 0.1	< 0.1	< 0.1	< 0.1	< 0.1	Cc1c(O)c(-c2ccc3nc(N4CCC(NC(C)(C)C)C4)ccc3n2)cc2cn(C)nc12 (centres unmarked) [Compound 275]	–	–	–	–	–	< 0.1	< 0.1
1 to 10	1 to 10	0.1 to 1	0.1 to 1	< 0.1	–	–	–	–	–	–	–	Cc1cn2cc(-c3ncc4cc(N5C[C@H](C)N[C@@H](C)C5)ccc4n3)ccc2n1 [Compound 827]	1 to 10	0.1 to 1	B (B represents 100-1000 nM)	–	–	–	–
0.1 to 1	0.1 to 1	< 0.1	< 0.1	< 0.1	–	–	–	–	–	–	–	C[C@H]1CN(c2ccc3nc(-c4cc(F)c5nc(CF)cn5c4)ncc3c2)C[C@H](C)N1 [Compound 829, 6-[(3S,5S)-3,5-dimethylpiperazin-1-yl]-2-[8-fluoro-2-(fluoromethyl)imidazo[1,2-a]pyridin-6-yl]quinazoline]	0.1 to 1	0.1 to 1	B (B represents 100-1000 nM)	–	–	–	–
1 to 10	1 to 10	0.1 to 1	0.1 to 1	< 0.1	–	–	–	–	–	–	–	COc1cc(-c2ncc3cc(N4C[C@@H](C)N[C@@H](C)C4)ccc3n2)cn2cc(C)nc12 [Compound 830]	> 10	0.1 to 1	B (B represents 100-1000 nM)	–	–	–	–
0.1 to 1	0.1 to 1	< 0.1	< 0.1	< 0.1	–	–	–	–	–	–	–	Cc1cn2cc(-c3ncc4cc(N5C[C@@H](C)N[C@@H](C)C5)ccc4n3)cc(C#N)c2n1 [Compound 831]	1 to 10	< 0.1	B (B represents 100-1000 nM)	–	–	–	–
> 10	> 10	0.1 to 1	0.1 to 1	< 0.1	–	–	–	–	–	–	–	Cc1cn2cc(-c3ncc4cc(N5C[C@@H](C)N[C@@H](C)C5)ccc4n3)ccc2n1 [Compound 832]	> 10	1 to 10	C (C represents 1000-9999 nM)	–	–	–	–
1 to 10	1 to 10	1 to 10	1 to 10	0.1 to 1	–	–	–	–	–	–	–	C[C@@H]1CN(c2ccc3nc(-c4cc(F)c5nncn5c4)ncc3c2)C[C@H](C)N1 [Compound 833]	1 to 10	1 to 10	C (C represents 1000-9999 nM)	–	–	–	–
1 to 10	1 to 10	0.1 to 1	0.1 to 1	< 0.1	–	–	–	–	–	–	–	C[C@@H]1CN(c2ccc3nc(-c4cc(F)c5nc(CO)cn5c4)ncc3c2)C[C@H](C)N1 [Compound 834, (6-{6-[(3R,5S)-3,5-dimethylpiperazin-1-yl]quinazolin-2-yl}-8-fluoroimidazo[1,2-a]pyridin-2-yl)methanol]	1 to 10	0.1 to 1	C (C represents 1000-9999 nM)	–	–	–	–
1 to 10	1 to 10	0.1 to 1	0.1 to 1	< 0.1	–	–	–	–	–	–	–	C[C@@H]1CN(c2ccc3nc(-c4cc(F)c5nc(CF)cn5c4)ncc3c2)C[C@H](C)N1 [Compound 835, 6-[(3R,5S)-3,5-dimethylpiperazin-1-yl]-2-[8-fluoro-2-(fluoromethyl)imidazo[1,2-a]pyridin-6-yl]quinazoline]	1 to 10	0.1 to 1	B (B represents 100-1000 nM)	–	–	–	–
1 to 10	1 to 10	> 10	> 10	0.1 to 1	–	–	–	–	–	–	–	CCc1cn2cc(-c3ncc4cc(N5C[C@@H](C)N[C@@H](C)C5)ccc4n3)cc(F)c2n1 [Compound 836]	> 10	1 to 10	C (C represents 1000-9999 nM)	–	–	–	–
–	–	–	–	–	–	–	–	–	–	–	–	Cc1cn2cc(-c3ncc4cc(N5C[C@@H](C)N[C@@H](C)C5)ccc4n3)cc(Cl)c2n1 [Compound 896]	–	–	B (B represents 100-1000 nM)	–	–	–	–
1 to 10	1 to 10	< 0.1	< 0.1	< 0.1	–	–	–	–	–	–	–	Cn1cc2cc(-c3ncc4cc(N5CC[C@H](NC(C)(C)C)C5)ccc4n3)c(O)c(F)c2n1 [Compound 929]	0.1 to 1	< 0.1	–	–	–	–	–
1 to 10	1 to 10	0.1 to 1	0.1 to 1	< 0.1	–	–	–	–	–	–	–	Cn1cc2cc(-c3ncc4cc(N5CC[C@@H](NC(C)(C)C)C5)ccc4n3)c(O)c(F)c2n1 [Compound 930]	> 10	0.1 to 1	–	–	–	–	–
